Experimental data reported in patent publication US20220305051A1 (priority 2019, published 2022).

Key:
[1] = tested on: oral NR activity; parameters: species or system mice; conditions: mouse, in vivo
[2] = tested on: C57bl/6 mice exposed to Cl2, Br2 or COCl2; conditions: mouse, in vivo
[3] = tested on: tongue and lung microbiome; parameters: species or system mice; conditions: mouse, in vivo
[4] = parameters: species or system mice; conditions: mouse, in vivo
[5] = mouse, in vivo
[6] = tested on: C57bl/6 mice exposed to Br2; conditions: mouse, in vivo
[7] = tested on: C57bl/6 mice exposed to Br2; conditions: mouse, in vivo; remark: listed apart in the source
[8] = tested on: P. Aeruginosa; parameters: species or system mice; conditions: mouse, in vivo
[9] = tested on: oral NR activity; parameters: species or system mice; conditions: mouse, in vivo; remark: listed apart in the source

[H]/N=C(\N/C(=N/[H])NCCCCCCNC(=N)NC(=N)Nc1ccc(Cl)cc1)Nc1ccc(Cl)cc1 [chlorhexidine]
Inhibition of NR activity [1]: ~70%
Increase in severity of Br2 and COCl2 lung injury [2]: 1.5-2.5 fold
Increase in severity of Cl2 lung injury [2]: close to significant effects
Lung injury, chlorhexidine alone [2]: no effect on lung injury
Decrease in abundance of 7 bacteria on the tongue [3]: > 50%
Decrease of the one altered bacterial species in the lung microbiome [3]: ~30%
Decrease of plasma nitrite [4]: 50%

O=[N+]([O-])O [nitrate]
Plasma nitrite and cGMP [5]: will temporally increase plasma nitrite and cGMP
Plasma nitrite levels [5]: increase

O=NO [nitrite, sodium nitrite]
Decrease of BAL neutrophil [6]: 50%
Survival over 10 days (Kaplan Meier) [7]: improved survival early
Protection against ALI and P. aeruginosa infection [8]: protects against ALI and P. aeruginosa infection
Susceptibility to P. aeruginosa infection (bacterial burden in lung homogenates) [8]: decreases susceptibility to P. aeruginosa infection

bromine [Br2]
Bacterial number (CFU) [9]: not different
NR activity normalized per bacterial number [9]: significantly inhibited

B1: hemopexin: a heme-scavenger; scavenges free heme (protein, UniProt P02790 24-462, looked up)
Hemopexin: TPLPPTSAHGNVAEGETKPDPDVTERCSDGWSFDATTLDDNGTMLFFKGEFVWKSHKWDRELISERWKNFPSPVDAAFRQGHNSVFLIKGDKVWVYPPEKKEKGYPKLLQDEFPGIPSPLDAAVECHRGECQAEGVLFFQGDREWFWDLATGTMKERSWPAVGNCSSALRWLGRYYCFQGNQFLRFDPVRGEVPPRYPRDVRDYFMPCPGRGHGHRNGTGHGNSTHHGPEYMRCSPHLVLSALTSDNHGATYAFSGTHYWRLDTSRDGWHSWPIAHQWPQGPSAVDAAFSWEEKLYLVQGTQVYVFLTKGGYTLVSGYPKRLEKEVGTPHGIILDSVDAAFICPGSSRLHIMAGRRLWWLDLKSGAQATWTELPWPHEKVDGALCMEKSLGPNSCSANGPGLYLIHGPNLYCYSDVEKLNAAKALPQPQNVTSLLGCTH
Survival over 10 days (Kaplan Meier) [7]: improved survival
Protection against ALI and P. aeruginosa infection [8]: protects against ALI and P. aeruginosa infection
